21 compounds from PubChem BioAssay (NCI) can be followed below.

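Interpolation was linear, between the two tested concentrations surrounding the appropriate level; five concentrations were tested over 48 hours in 96-well plates. TGI is the concentration that stops growth completely.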

As usually defined, the TGI is the concentration at which net growth stops. A higher TGI goes with lower sensitivity of the cells.

The subject of the first test is RPMI-8226 leukemia. Put plainly: DTP human tumour cell line panel, 48 h.
With `O=c1c2c(oc3ccccc13)-c1ccccc1OC2`, the TGI was more than 100 µM.
Regarding `CCSc1[nH]c(NC(=S)NC(=O)c2ccccc2Cl)c(C(N)=O)c1C(N)=O`, the TGI is more than 10 µM.
Same read-out and setting: next, `CCCCNc1nc(C#N)c(N)s1`: more than 100 µM; `Cn1cc2ccccc2c1-c1nc(F)nc(F)n1`: 90.5 µM.
The compound `COC(=O)N/N=C(\Cc1ccccc1)CN(C)C` returned a TGI of more than 100 µM.
The same measure, in the same setting: next, `CC1=NN(C(=O)c2ccccc2O)C(=O)/C1=C/c1ccco1`: more than 92.6 µM.
On the same count and under the same terms, next, `COc1ccc2c3c1O[C@]1(C)C34CCN(C)C(C2)C42C=C[C@@]1(OC)c1c(O)ccc(O)c12`: more than 100 µM.
Same read-out and setting: next, `C[N+](C)(C)CC(=O)N/N=C/c1oc(-c2c(O)ccc3ccccc23)c(-c2c(O)ccc3ccccc23)c1[N+](=O)[O-]`: more than 100 µM.
For the compound `COC(=O)C1(CCC(C)=O)CCCCCC1=O` (stereo not drawn), the TGI is more than 100 µM.
`CCc1n[nH]c(=O)n1/N=C/c1c(O)ccc2ccccc12` registered a TGI of more than 100 µM.
For `CC(=O)OC1COC(n2c(O)c(N=NC(N)=S)c3cc(Br)ccc32)C(OC(C)=O)C1OC(C)=O` (stereo not drawn), the TGI was more than 100 µM.
As for `O=C(CSc1nnc(-c2ccc(N=Cc3ccc(Cl)cc3)cc2)o1)Nc1ccccc1[N+](=O)[O-]`, the TGI is more than 100 µM.

A further test concerns CCRF-CEM leukemia. As to the kind of experiment: DTP human tumour cell line panel, 48 h.
With `O=c1[nH]c2cc([N+](=O)[O-])ccc2nc1/C(=N/Nc1ccccc1)C(O)c1ccccc1Cl` (stereo not drawn), the TGI was more than 100 µM.
As for `C=Cc1ccc(C)[n+](C[Si](C)(C)O[Si](C)(C)C)c1`, the TGI was more than 100 µM.
In the case of `C[C@]12CCC(=O)C=C1CC[C@@H]1[C@@H]2CC[C@]2(C)C(=O)NC(=O)C[C@@H]12`, the concentration for total growth inhibition (TGI) is more than 100 µM.
The compound `COc1cc2c(oc(=O)c3c4oc([Si](C)(C)C)cc4cc(OC)c23)c2cccc(OCc3ccccc3)c12` registered a TGI of more than 100 µM.
As for `CN(C)Nc1cc(=O)[nH]c(=O)[nH]1`, the TGI is more than 100 µM.
`O=C(c1cccs1)N(C(=S)N1CCN(c2ccccn2)CC1)c1ccccc1`: the TGI was more than 100 µM.
The same measure, in the same setting: for `CNS(=O)(=O)NN(C)S(=O)(=O)c1ccccc1` the value was more than 100 µM.
`CC(=O)OCC1=C(CCC#N)N2C(=O)C(NC(=O)Cc3cccs3)C2S(=O)C1` (stereo not drawn) had a TGI of more than 100 µM.
`O=c1c2c(oc3ccccc13)-c1ccccc1OC2` returned a TGI of more than 100 µM.
Take `CCSc1[nH]c(NC(=S)NC(=O)c2ccccc2Cl)c(C(N)=O)c1C(N)=O`: the TGI is more than 10 µM.
`Cn1cc2ccccc2c1-c1nc(F)nc(F)n1` registered a TGI of more than 100 µM.
The compound `COC(=O)N/N=C(\Cc1ccccc1)CN(C)C` registered a TGI of more than 100 µM.
The compound `CC1=NN(C(=O)c2ccccc2O)C(=O)/C1=C/c1ccco1` registered a TGI of more than 100 µM.
Compound `COc1ccc2c3c1O[C@]1(C)C34CCN(C)C(C2)C42C=C[C@@]1(OC)c1c(O)ccc(O)c12` came in with a TGI of more than 100 µM.
The compound `C[N+](C)(C)CC(=O)N/N=C/c1oc(-c2c(O)ccc3ccccc23)c(-c2c(O)ccc3ccccc23)c1[N+](=O)[O-]` returned a TGI of 76.7 µM.
As to `CCc1n[nH]c(=O)n1/N=C/c1c(O)ccc2ccccc12`, the concentration for total growth inhibition (TGI) was more than 100 µM.
For the compound `CC(=O)OC1COC(n2c(O)c(N=NC(N)=S)c3cc(Br)ccc32)C(OC(C)=O)C1OC(C)=O` (stereo not drawn), the TGI is more than 100 µM.
Consider `O=C(CSc1nnc(-c2ccc(N=Cc3ccc(Cl)cc3)cc2)o1)Nc1ccccc1[N+](=O)[O-]`, for which the TGI was more than 100 µM.

A further test relates to MALME-3M melanoma. As to the kind of experiment: DTP human tumour cell line panel, 48 h.
The compound `O=c1[nH]c2cc([N+](=O)[O-])ccc2nc1/C(=N/Nc1ccccc1)C(O)c1ccccc1Cl` (stereo not drawn) yielded a TGI of more than 100 µM.
For `C=Cc1ccc(C)[n+](C[Si](C)(C)O[Si](C)(C)C)c1`, the TGI is more than 100 µM.
Same read-out and setting: next, `C[C@]12CCC(=O)C=C1CC[C@@H]1[C@@H]2CC[C@]2(C)C(=O)NC(=O)C[C@@H]12`: more than 100 µM; `COc1cc2c(oc(=O)c3c4oc([Si](C)(C)C)cc4cc(OC)c23)c2cccc(OCc3ccccc3)c12`: more than 71.5 µM.
`CN(C)Nc1cc(=O)[nH]c(=O)[nH]1` showed a TGI of more than 100 µM.
On the same count and under the same terms, for `O=C(c1cccs1)N(C(=S)N1CCN(c2ccccn2)CC1)c1ccccc1` the value was more than 100 µM; for `CNS(=O)(=O)NN(C)S(=O)(=O)c1ccccc1`, more than 100 µM; for `O=[N+]([O-])/C(C(Cl)=C(Cl)Cl)=C(\N1CCOCC1)n1nnc2ccccc21`, 35.1 µM.
Still for that read-out and setting: for `CC(=O)OCC1=C(CCC#N)N2C(=O)C(NC(=O)Cc3cccs3)C2S(=O)C1` (stereo not drawn) the value was more than 100 µM.
Still for that read-out and setting: next, `O=c1c2c(oc3ccccc13)-c1ccccc1OC2`: more than 100 µM.
Turning to `CCSc1[nH]c(NC(=S)NC(=O)c2ccccc2Cl)c(C(N)=O)c1C(N)=O`, the TGI was more than 10 µM.
As to `CCCCNc1nc(C#N)c(N)s1`, the TGI is more than 100 µM.
`Cn1cc2ccccc2c1-c1nc(F)nc(F)n1` gave a TGI of more than 100 µM.
The same measure, in the same setting: next, `COC(=O)N/N=C(\Cc1ccccc1)CN(C)C`: more than 100 µM.
In turn, `CC1=NN(C(=O)c2ccccc2O)C(=O)/C1=C/c1ccco1` had a TGI of 73.1 µM. That is a double-digit micromolar value.
The same measure, in the same setting: for `COc1ccc2c3c1O[C@]1(C)C34CCN(C)C(C2)C42C=C[C@@]1(OC)c1c(O)ccc(O)c12` the value was more than 100 µM; for `C[N+](C)(C)CC(=O)N/N=C/c1oc(-c2c(O)ccc3ccccc23)c(-c2c(O)ccc3ccccc23)c1[N+](=O)[O-]`, 28.2 µM; for `COC(=O)C1(CCC(C)=O)CCCCCC1=O` (stereo not drawn), more than 100 µM.
Take `CC(=O)OC1COC(n2c(O)c(N=NC(N)=S)c3cc(Br)ccc32)C(OC(C)=O)C1OC(C)=O` (stereo not drawn): the TGI was more than 100 µM.
For `O=C(CSc1nnc(-c2ccc(N=Cc3ccc(Cl)cc3)cc2)o1)Nc1ccccc1[N+](=O)[O-]`, the total growth inhibition concentration (TGI) is more than 100 µM.

A further test has as its system SK-MEL-5 melanoma. Put plainly: DTP human tumour cell line panel, 48 h.
`O=c1[nH]c2cc([N+](=O)[O-])ccc2nc1/C(=N/Nc1ccccc1)C(O)c1ccccc1Cl` (stereo not drawn) gave a TGI of more than 100 µM.
`C=Cc1ccc(C)[n+](C[Si](C)(C)O[Si](C)(C)C)c1` returned a TGI of more than 100 µM.
As to `C[C@]12CCC(=O)C=C1CC[C@@H]1[C@@H]2CC[C@]2(C)C(=O)NC(=O)C[C@@H]12`, the TGI is more than 100 µM.
In turn, `COc1cc2c(oc(=O)c3c4oc([Si](C)(C)C)cc4cc(OC)c23)c2cccc(OCc3ccccc3)c12` registered a TGI of more than 100 µM.
`CN(C)Nc1cc(=O)[nH]c(=O)[nH]1` showed a TGI of more than 100 µM.
On the same count and under the same terms, for `O=C(c1cccs1)N(C(=S)N1CCN(c2ccccn2)CC1)c1ccccc1` the value was more than 100 µM.
Compound `CNS(=O)(=O)NN(C)S(=O)(=O)c1ccccc1` returned a TGI of more than 100 µM.
Regarding `O=[N+]([O-])/C(C(Cl)=C(Cl)Cl)=C(\N1CCOCC1)n1nnc2ccccc21`, the TGI is 35.3 µM.
On to `CC(=O)OCC1=C(CCC#N)N2C(=O)C(NC(=O)Cc3cccs3)C2S(=O)C1` (stereo not drawn), for which the TGI is more than 100 µM.
`O=c1c2c(oc3ccccc13)-c1ccccc1OC2` registered a TGI of more than 100 µM.
Same read-out and setting: for `CCSc1[nH]c(NC(=S)NC(=O)c2ccccc2Cl)c(C(N)=O)c1C(N)=O` the value was more than 10 µM; for `Cn1cc2ccccc2c1-c1nc(F)nc(F)n1`, more than 100 µM; for `COC(=O)N/N=C(\Cc1ccccc1)CN(C)C`, more than 100 µM.
`CC1=NN(C(=O)c2ccccc2O)C(=O)/C1=C/c1ccco1` registered a TGI of 9.19 µM. This counts as single-digit micromolar.
`COc1ccc2c3c1O[C@]1(C)C34CCN(C)C(C2)C42C=C[C@@]1(OC)c1c(O)ccc(O)c12` registered a TGI of more than 100 µM.
`C[N+](C)(C)CC(=O)N/N=C/c1oc(-c2c(O)ccc3ccccc23)c(-c2c(O)ccc3ccccc23)c1[N+](=O)[O-]` yielded a TGI of 22.9 µM.
Still for that read-out and setting: for `COC(=O)C1(CCC(C)=O)CCCCCC1=O` (stereo not drawn) the value was more than 100 µM; for `CCc1n[nH]c(=O)n1/N=C/c1c(O)ccc2ccccc12`, more than 100 µM.
